Reference: patent publication US12000833B2, “Marker for predicting the sensitivity to PI3K inhibitors” (INSERM (INSTITUT NATIONAL DE LA SANTE ET DE LA RECHERCHE …, priority 2017, dated 2024)

How the values were obtained:
phosphorylation of Akt [1] = assay: Serum (FBS)-stimulated phosphorylation of Akt and downstream effectors in Capan-1 cells; format: cell-based, human; settings: Capan-1, after 10 min stimulation with serum
Description: Light amino acid-labelled and heavy amino acid-labelled Capan-1 cells (respectively called thereafter “light” and “heavy” cells) were washed twice with phosphate buffer saline (PBS; SIGMA; D8537), trypsined (GE Healthcare; L11-002) and plated at a concentration of 2.5.10^6 cells in a 14.4 cm-diameter dish (Dutscher, 055063). After 48 h, cells were serum-starved during 16 h, over-night. Light and heavy cells were pre-treated respectively with inhibitors or their accordingly diluted vehicule (DMSO) (for drug description and used concentration) during 1 h, then stimulated or not for 10 min or 24 h with 2% dialysed FBS. After 10 min and 24 h of FBS stimulation, heavy cells and light cells were maintained on ice, washed three times with cold PBS and lysed.
(§1) In pancreatic cancer, PI3K signalling is associated with a poor prognosis. […] However, this was not always coupled to a significant increase in the phosphorylation levels of canonical targets, pPRAS40 or pS6K, in all patients (data not shown), emphasizing the importance of other signalling targets downstream PI3Ks. Long-term inhibition of a core signal node is believed to induce an adaptive modification of the entire signal network. We tested if long-term inhibition of each PI3K isoforms induces a differential change in pancreatic cancer cell adaptation. To answer this question, we devise a strategy to globally identify this adaptive response focusing on phospho-site regulated signalling pathways (data not shown). […] Serum, which consist of a combination of RTK and GPCR stimuli mimicking physiopathological signalling, induces after 10 min a significant activation of class I PI3Ks as assessed by the phosphorylation of Akt and known downstream effectors PRAS40, S6K, S6 (data not shown). […] We thus chose these stimulation conditions to identify differential phosphoproteome across time in response to three PI3K iso form-selective drugs after SILAC metabolic labelling and enrichment in trypsine-based phosphopeptides by TiO2 beads allowing a robust S/T/Y phosphorylation quantification of thousands of proteins.

phosphorylation of Akt [2] = assay: RTK-driven (EGF) or GPCR-driven (LPA) short-term phosphorylation of Akt; format: cell-based, human; settings: data not shown
Text: as §1

[3] = tested on: metastatic pancreatic cancer; settings: cited from earlier work
[4] = monotherapy, gemcitabine-resistant metastatic pancreatic cancer patient

Cc1nc(NC(=O)N2CCC[C@H]2C(N)=O)sc1-c1csc(C(C)(C)C)n1 [A66]
pS473 and pT308Akt levels (phosphorylation of Akt [1]): significantly inhibited
RTK-driven (EGF) short-term phosphorylation of Akt (phosphorylation of Akt [2]; EGF stimulation): inhibited

O=C1NC(=O)/C(=C/c2ccc(-c3ccc(F)cc3O)o2)S1 [AS-252424]
pS473 and pT308Akt levels (phosphorylation of Akt [1]): significantly inhibited
GPCR-driven (LPA) short-term phosphorylation of Akt (phosphorylation of Akt [2]; LPA stimulation): inhibited

CO[C@H]1C[C@@H]2CC[C@@H](C)[C@@](O)(O2)C(=O)C(=O)N2CCCC[C@H]2C(=O)O[C@H]([C@H](C)C[C@@H]2CC[C@@H](OCCO)[C@H](OC)C2)CC(=O)[C@H](C)/C=C(\C)[C@@H](O)[C@@H](OC)C(=O)[C@H](C)C[C@H](C)/C=C/C=C/C=C/1C [RAD001]
clinical action [3, 4]: only a minimal clinical action
tolerability [3, 4]: well tolerated

Cc1cc(C(C)Nc2ccccc2)c2nc(N3CCOCC3)cc(=O)n2c1 (centres unmarked) [TGX-221]
pS473 and pT308Akt levels (phosphorylation of Akt [1]): significantly inhibited

Nc1ccn([C@@H]2O[C@H](CO)[C@@H](O)C2(F)F)c(=O)n1 [gemcitabine]
patient survival ([3]; standard of line chemotherapy, pancreatic cancer patients): increases their survival of only a few weeks
